Measured values: publication PMC9266445, “Probing the Conformational States of Thimet Oligopeptidase in Solution” (International Journal of Molecular Sciences, 2022)

Key:
TOP^-TrpW390 = molecular target: T1, TOP^-TrpW390 (Rattus norvegicus, UniProt P24155, W124F/W335F/W511F/W513F/W614F); assay: Inhibition constant of JA-2, continuous assay with QFS, TOP^-TrpW390; assay type: biochemical; settings: substrate QFS, 37 °C, 50 mM Tris-HCl pH 7.4, 100 mM NaCl, 0.5 mM DTT
T1 construct: made in house; host or cells: Escherichia coli BL21 (DE3), pET26b
T1 sequence (P24155 whole entry W124F/W335F/W511F/W513F/W614F): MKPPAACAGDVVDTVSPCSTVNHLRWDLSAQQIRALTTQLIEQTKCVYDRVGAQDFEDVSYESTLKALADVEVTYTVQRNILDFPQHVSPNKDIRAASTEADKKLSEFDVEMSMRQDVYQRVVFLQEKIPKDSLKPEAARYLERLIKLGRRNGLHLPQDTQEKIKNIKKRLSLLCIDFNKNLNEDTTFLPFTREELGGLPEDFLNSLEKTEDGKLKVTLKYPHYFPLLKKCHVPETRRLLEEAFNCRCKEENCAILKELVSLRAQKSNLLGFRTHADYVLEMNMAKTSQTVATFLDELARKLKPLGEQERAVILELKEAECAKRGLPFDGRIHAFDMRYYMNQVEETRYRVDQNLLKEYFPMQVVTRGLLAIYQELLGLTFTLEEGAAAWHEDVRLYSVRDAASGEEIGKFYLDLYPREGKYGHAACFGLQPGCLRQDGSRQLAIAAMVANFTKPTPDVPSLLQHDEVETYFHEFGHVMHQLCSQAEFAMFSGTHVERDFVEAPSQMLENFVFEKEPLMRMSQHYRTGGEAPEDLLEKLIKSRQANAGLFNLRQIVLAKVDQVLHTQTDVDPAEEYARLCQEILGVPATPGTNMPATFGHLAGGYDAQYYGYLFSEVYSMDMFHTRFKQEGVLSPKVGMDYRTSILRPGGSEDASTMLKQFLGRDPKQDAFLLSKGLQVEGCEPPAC
Description: (§1) WT TOP and mutant activities were monitored spectrofluorometrically in a Shimadzu RF-5301PC spectrofluorometer using the FRET peptide QFS (Mca-Pro-Leu-Gly-Pro-D-Lys (Dnp)-OH) as substrate, with excitation and emission wavelengths of 320 and 420 nm, respectively. TOP and its mutants were pre-activated by incubation with 0.5 mM DTT for 5 min at 37 °C. The concentration of the peptide solutions was determined by measuring the absorption of the 2,4-dinitrophenyl group at 365 nm (ε = 17,300 M^−1cm^−1). The kinetic parameters of peptide hydrolysis were determined at 37 °C in 50 mM Tris-HCl buffer, pH 7.4, containing 100 mM NaCl. […] The reaction was monitored continuously via the fluorescence of the released product. The rate of increase in fluorescence was converted into moles of substrate hydrolyzed per second based on the fluorescence curves of standard peptide solutions before and after total enzymatic hydrolysis. […] An empirical equation was used to correct for the inner-filter effect, and the kinetic parameters were calculated according to Wilkinson and by using Eadie–Hofstee plots. […]
(§2) Inhibition constants were determined using the TOP inhibitor JA-2 (N-[1-(R,S)-carboxy-3-phenylpropyl]Ala-Aib-Tyr-p-aminobenzoate). The constants were determined in a continuous assay using the FRET peptide QFS as substrate. […]

WT TOP = molecular target: T2, WT TOP (Rattus norvegicus, UniProt P24155); assay: Inhibition constant of JA-2, continuous assay with QFS, WT TOP; assay type: biochemical; settings: substrate QFS, 37 °C, 50 mM Tris-HCl pH 7.4, 100 mM NaCl, 0.5 mM DTT
T2 construct: made in house; host or cells: Escherichia coli BL21 (DE3), pET26b
T2 sequence (P24155 whole entry): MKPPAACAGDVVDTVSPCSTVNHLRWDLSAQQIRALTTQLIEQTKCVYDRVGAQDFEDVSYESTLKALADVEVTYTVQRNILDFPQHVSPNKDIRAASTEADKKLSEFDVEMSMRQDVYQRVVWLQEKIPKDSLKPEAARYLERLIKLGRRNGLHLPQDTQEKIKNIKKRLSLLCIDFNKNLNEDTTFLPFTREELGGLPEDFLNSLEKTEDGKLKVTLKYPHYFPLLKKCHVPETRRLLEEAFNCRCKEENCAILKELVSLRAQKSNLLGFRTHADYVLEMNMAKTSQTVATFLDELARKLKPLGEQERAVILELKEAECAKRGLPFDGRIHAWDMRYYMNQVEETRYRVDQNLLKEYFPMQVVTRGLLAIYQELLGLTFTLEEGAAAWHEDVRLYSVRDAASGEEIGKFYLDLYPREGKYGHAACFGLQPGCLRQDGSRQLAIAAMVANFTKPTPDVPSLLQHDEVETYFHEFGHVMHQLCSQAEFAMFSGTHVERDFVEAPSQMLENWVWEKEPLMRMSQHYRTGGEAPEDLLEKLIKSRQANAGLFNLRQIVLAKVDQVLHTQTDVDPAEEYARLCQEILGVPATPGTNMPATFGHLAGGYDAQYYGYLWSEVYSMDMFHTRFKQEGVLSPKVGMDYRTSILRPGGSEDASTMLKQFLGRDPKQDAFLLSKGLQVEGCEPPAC
Description: as §1, §2

TOP^-TrpW390/L215pNF [1] = molecular target: T3, TOP^-TrpW390/L215pNF (Rattus norvegicus, UniProt P24155, L215F/W124F/W335F/W511F/W513F/W614F); assay: Inhibition constant of JA-2, continuous assay with QFS, TOP^-TrpW390/L215pNF; assay type: biochemical; settings: substrate QFS, 37 °C, 50 mM Tris-HCl pH 7.4, 100 mM NaCl, 0.5 mM DTT
T3 construct: made in house; host or cells: Escherichia coli BL21 (DE3), pET26b + pACYC184 (orthogonal tRNA/synthetase pair for pNF)
T3 sequence (P24155 whole entry W124F/L215F/W335F/W511F/W513F/W614F): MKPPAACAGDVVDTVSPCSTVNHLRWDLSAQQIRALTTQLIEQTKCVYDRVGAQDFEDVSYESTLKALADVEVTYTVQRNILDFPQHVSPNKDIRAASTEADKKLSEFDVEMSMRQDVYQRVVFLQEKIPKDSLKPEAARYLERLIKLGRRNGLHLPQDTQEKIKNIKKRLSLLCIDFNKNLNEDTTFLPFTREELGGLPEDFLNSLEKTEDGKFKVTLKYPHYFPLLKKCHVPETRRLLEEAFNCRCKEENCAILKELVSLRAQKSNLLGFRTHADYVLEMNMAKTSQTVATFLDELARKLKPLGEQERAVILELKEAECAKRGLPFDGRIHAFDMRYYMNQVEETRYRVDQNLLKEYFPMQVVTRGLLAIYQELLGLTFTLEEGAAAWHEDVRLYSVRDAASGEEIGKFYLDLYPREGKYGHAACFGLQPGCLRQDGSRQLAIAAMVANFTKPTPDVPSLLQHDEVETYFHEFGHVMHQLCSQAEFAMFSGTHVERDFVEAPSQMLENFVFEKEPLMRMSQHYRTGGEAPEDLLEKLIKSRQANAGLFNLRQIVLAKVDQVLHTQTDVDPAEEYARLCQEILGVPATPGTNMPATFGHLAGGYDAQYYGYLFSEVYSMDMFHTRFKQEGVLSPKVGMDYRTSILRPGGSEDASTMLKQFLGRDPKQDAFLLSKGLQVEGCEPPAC
Description: as §1, §2

TOP^-TrpW390/Y224pNF [2] = molecular target: T4, TOP^-TrpW390/Y224pNF (Rattus norvegicus, UniProt P24155, W124F/W335F/W511F/W513F/W614F/Y224F); assay: Protein fluorescence (Trp-pNF FRET) assay in presence of JA-2, TOP^-TrpW390/Y224pNF
T4 construct: made in house; host or cells: Escherichia coli BL21 (DE3), pET26b + pACYC184 (orthogonal tRNA/synthetase pair for pNF)
T4 sequence (P24155 whole entry W124F/Y224F/W335F/W511F/W513F/W614F): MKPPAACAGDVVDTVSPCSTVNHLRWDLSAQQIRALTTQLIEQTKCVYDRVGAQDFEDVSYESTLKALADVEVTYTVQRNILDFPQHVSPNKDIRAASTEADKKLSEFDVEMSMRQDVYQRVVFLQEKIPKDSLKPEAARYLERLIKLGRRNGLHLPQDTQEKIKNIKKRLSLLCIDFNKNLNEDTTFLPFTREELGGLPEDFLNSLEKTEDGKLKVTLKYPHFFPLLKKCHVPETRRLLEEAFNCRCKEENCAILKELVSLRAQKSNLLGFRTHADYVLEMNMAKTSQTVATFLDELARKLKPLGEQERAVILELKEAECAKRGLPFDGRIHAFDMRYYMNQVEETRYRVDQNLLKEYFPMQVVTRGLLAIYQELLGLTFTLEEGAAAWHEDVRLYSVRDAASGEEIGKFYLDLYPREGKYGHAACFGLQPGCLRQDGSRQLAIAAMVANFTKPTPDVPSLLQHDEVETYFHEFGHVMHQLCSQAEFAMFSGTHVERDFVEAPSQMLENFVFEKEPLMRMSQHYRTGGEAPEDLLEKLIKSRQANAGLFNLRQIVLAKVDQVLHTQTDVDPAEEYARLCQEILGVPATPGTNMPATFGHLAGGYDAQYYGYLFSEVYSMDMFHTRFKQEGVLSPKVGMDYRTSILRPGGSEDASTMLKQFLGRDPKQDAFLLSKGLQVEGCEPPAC

TOP^-TrpW390/L182pNF [3] = molecular target: T5, TOP^-TrpW390/L182pNF (Rattus norvegicus, UniProt P24155, L182F/W124F/W335F/W511F/W513F/W614F); assay: Inhibition constant of JA-2, continuous assay with QFS, TOP^-TrpW390/L182pNF; assay type: biochemical; settings: substrate QFS, 37 °C, 50 mM Tris-HCl pH 7.4, 100 mM NaCl, 0.5 mM DTT
T5 construct: made in house; host or cells: Escherichia coli BL21 (DE3), pET26b + pACYC184 (orthogonal tRNA/synthetase pair for pNF)
T5 sequence (P24155 whole entry W124F/L182F/W335F/W511F/W513F/W614F): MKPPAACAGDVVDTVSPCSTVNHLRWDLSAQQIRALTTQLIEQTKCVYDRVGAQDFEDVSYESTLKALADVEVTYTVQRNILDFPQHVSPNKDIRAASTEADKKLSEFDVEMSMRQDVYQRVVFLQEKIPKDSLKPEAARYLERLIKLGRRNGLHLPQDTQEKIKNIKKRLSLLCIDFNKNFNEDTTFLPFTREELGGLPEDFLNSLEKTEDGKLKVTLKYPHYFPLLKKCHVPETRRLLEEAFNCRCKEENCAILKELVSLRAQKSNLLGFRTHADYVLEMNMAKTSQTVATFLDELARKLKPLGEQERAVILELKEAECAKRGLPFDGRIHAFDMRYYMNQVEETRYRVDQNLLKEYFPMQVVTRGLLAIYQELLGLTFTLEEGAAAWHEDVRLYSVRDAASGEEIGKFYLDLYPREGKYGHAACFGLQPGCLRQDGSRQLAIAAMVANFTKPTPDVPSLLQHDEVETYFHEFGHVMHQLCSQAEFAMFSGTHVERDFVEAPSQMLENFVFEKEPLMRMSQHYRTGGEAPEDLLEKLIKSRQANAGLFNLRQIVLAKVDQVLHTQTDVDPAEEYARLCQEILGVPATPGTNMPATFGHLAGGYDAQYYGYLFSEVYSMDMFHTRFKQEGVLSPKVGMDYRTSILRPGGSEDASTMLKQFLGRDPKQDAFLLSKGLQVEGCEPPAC
Description: as §1, §2

TOP^-TrpW390/Y224pNF [4] = molecular target: T4, TOP^-TrpW390/Y224pNF; assay: Inhibition constant of JA-2, continuous assay with QFS, TOP^-TrpW390/Y224pNF; assay type: biochemical; settings: substrate QFS, 37 °C, 50 mM Tris-HCl pH 7.4, 100 mM NaCl, 0.5 mM DTT
Description: as §1, §2

TOP^-TrpW390/L182pNF [5] = molecular target: T5, TOP^-TrpW390/L182pNF; assay: Protein fluorescence (Trp-pNF FRET) assay in presence of JA-2, TOP^-TrpW390/L182pNF
TOP^-TrpW390/L215pNF [6] = molecular target: T3, TOP^-TrpW390/L215pNF; assay: Protein fluorescence (Trp-pNF FRET) assay in presence of JA-2, TOP^-TrpW390/L215pNF
TOP^-TrpW390/F178pNF [7] = molecular target: T6, TOP^-TrpW390/F178pNF (Rattus norvegicus, UniProt P24155, W124F/W335F/W511F/W513F/W614F); assay: Inhibition constant of JA-2, continuous assay with QFS, TOP^-TrpW390/F178pNF; assay type: biochemical; settings: substrate QFS, 37 °C, 50 mM Tris-HCl pH 7.4, 100 mM NaCl, 0.5 mM DTT
T6 construct: made in house; host or cells: Escherichia coli BL21 (DE3), pET26b + pACYC184 (orthogonal tRNA/synthetase pair for pNF)
T6 sequence (P24155 whole entry W124F/W335F/W511F/W513F/W614F): as the sequence (P24155 whole entry W124F/W335F/W511F/W513F/W614F) above
Description: as §1, §2

TOP^-TrpW390/F178pNF [8] = molecular target: T6, TOP^-TrpW390/F178pNF; assay: Protein fluorescence (Trp-pNF FRET) assay in presence of JA-2, TOP^-TrpW390/F178pNF
[9] = 13.4 µM JA-2, 0.5 µM TOP protein, 37 °C, 50 mM Tris-HCl pH 7.4, 100 mM NaCl, 0.5 mM DTT
[10] = 13.4 µM JA-2, calculated using Equation (1), R0 = 15.8 Å

Compound: C[C@H](NC(CCc1ccccc1)C(=O)O)C(=O)NC(C)(C)C(=O)N[C@@H](Cc1ccc(O)cc1)C(=O)Nc1ccc(C(=O)O)cc1 (stereo partly drawn) [JA-2, N-[1-(R,S)-carboxy-3-phenylpropyl]Ala-Aib-Tyr-p-aminobenzoate]
- Ki (TOP^-TrpW390): 750 ± 40 nM
- Ki (WT TOP): 32 ± 1 nM
- Ki (TOP^-TrpW390/L215pNF [1]): 870 ± 50 nM
- FRET Efficiency, +JA-2 (TOP^-TrpW390/Y224pNF [2]; [9]): 0.30 ± 0.02
- D-A Distance, +JA-2 (TOP^-TrpW390/Y224pNF [2]; [10]): 18 Å
- Ki (TOP^-TrpW390/L182pNF [3]): 740 ± 60 nM
- Ki (TOP^-TrpW390/Y224pNF [4]): 1160 ± 60 nM
- FRET Efficiency, +JA-2 (TOP^-TrpW390/L182pNF [5]; [9]): 0.24 ± 0.02
- D-A Distance, +JA-2 (TOP^-TrpW390/L182pNF [5]; [10]): 19 Å
- FRET Efficiency, +JA-2 (TOP^-TrpW390/L215pNF [6]; [9]): 0.10 ± 0.005
- D-A Distance, +JA-2 (TOP^-TrpW390/L215pNF [6]; [10]): 23 Å
- Ki (TOP^-TrpW390/F178pNF [7]): 1230 ± 80 nM
- FRET Efficiency, +JA-2 (TOP^-TrpW390/F178pNF [8]; [9]): 0.150 ± 0.009
- D-A Distance, +JA-2 (TOP^-TrpW390/F178pNF [8]; [10]): 21 Å
